Measured values: PubChem BioAssay AID248 (DTP/NCI, 2004)
Inconclusive results and toxic doses are left out.

System: L1210 leukemia ip in BDF1 mice, survival T/C
Test: NCI In Vivo Anticancer Drug Screen. Data for tumor model L1210 Leukemia (intraperitoneal) in B6D2F1 (BDF1) mice
Conditions: endpoint: mean survival time, higher = longer survival
Method in brief: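 Mice bearing the transplanted tumor received compound or vehicle. Survival of the treated group was divided by that of the vehicle-treated control group to give the ratio.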

[1] = dose: 100.0 mg/kg/injection, schedule: Q04DX003 (ip), vehicle: Klucel (hydroxypropylcellulose) (HPC)
[2] = dose: 200.0 mg/kg/injection, schedule: Q04DX003 (ip), vehicle: Klucel (hydroxypropylcellulose) (HPC)
[3] = dose: 400.0 mg/kg/injection, schedule: Q04DX003 (ip), vehicle: Klucel (hydroxypropylcellulose) (HPC)
[4] = dose: 200.0 mg/kg/injection, schedule: Q01DX Z (ip), vehicle: carboxymethylcellulose (CMC)
[5] = dose: 100.0 mg/kg/injection, schedule: Q01DX009 (ip), vehicle: Klucel (hydroxypropylcellulose) (HPC)
[6] = dose: 200.0 mg/kg/injection, schedule: Q01DX009 (ip), vehicle: Klucel (hydroxypropylcellulose) (HPC)
[7] = dose: 400.0 mg/kg/injection, schedule: Q01DX009 (ip), vehicle: Klucel (hydroxypropylcellulose) (HPC)
[8] = dose: 100.0 mg/kg/injection, schedule: Q04DX003 (ip), vehicle: saline with Tween-80

`NC(=S)N/N=C(\c1ccc(Cl)cc1)C1CC1` was tested, and the T/C (dose: 3.0 mg/kg/injection, schedule: Q01DX Z (ip), vehicle: carboxymethylcellulose (CMC)) was 96 % of control, the T/C (dose: 7.0 mg/kg/injection, schedule: Q01DX Z (ip), vehicle: carboxymethylcellulose (CMC)) was 96 % of control and the T/C (dose: 7.0 mg/kg/injection, schedule: Q01DX Z (sc), vehicle: carboxymethylcellulose (CMC)) was 121 % of control. For the same compound, the T/C (dose: 15.0 mg/kg/injection, schedule: Q01DX Z (ip), vehicle: carboxymethylcellulose (CMC)) was 97 % of control and the T/C (dose: 15.0 mg/kg/injection, schedule: Q01DX Z (sc), vehicle: carboxymethylcellulose (CMC)) was 120 % of control.

For `Clc1ccccc1CC12CCCCC1N2` (configuration not stated), the T/C [1] was 103 % of control, the T/C [2] was 90 % of control and the T/C [3] was 103 % of control.

With `COC(=O)c1[nH]cnc1/N=N/Nc1ccc(Cl)cc1` the T/C (dose: 50.0 mg/kg/injection, schedule: Q01DX001 (ip), vehicle: other) was 103 % of control, the T/C (dose: 100.0 mg/kg/injection, schedule: Q01DX001 (ip), vehicle: other) was 105 % of control and the T/C (dose: 200.0 mg/kg/injection, schedule: Q01DX001 (ip), vehicle: other) was 105 % of control. The T/C (dose: 400.0 mg/kg/injection, schedule: Q01DX001 (ip), vehicle: other) was 94 % of control.

For `Cc1c2c(cc3c1[nH]c1ccccc13)C(C)N(C)CC2` (configuration not stated), the T/C (dose: 14.6 mg/kg/injection, schedule: Q01DX Z (ip), vehicle: saline) was 110 % of control, the T/C (dose: 22.0 mg/kg/injection, schedule: Q01DX Z (ip), vehicle: saline) was 111 % of control and the T/C (dose: 32.5 mg/kg/injection, schedule: Q01DX015 (ip), vehicle: carboxymethylcellulose (CMC)) was 107 % of control. For the same compound, the T/C (dose: 33.0 mg/kg/injection, schedule: Q01DX Z (ip), vehicle: saline) was 113 % of control, the T/C (dose: 50.0 mg/kg/injection, schedule: Q01DX001 (ip), vehicle: carboxymethylcellulose (CMC)) was 109 % of control and the T/C (dose: 50.0 mg/kg/injection, schedule: Q01DX Z (ip), vehicle: saline) was 119 % of control. For the same compound, the T/C (dose: 75.0 mg/kg/injection, schedule: Q01DX015 (ip), vehicle: carboxymethylcellulose (CMC)) was 108 % of control, the T/C (dose: 100.0 mg/kg/injection, schedule: Q01DX001 (ip), vehicle: carboxymethylcellulose (CMC)) was 109 % of control and the T/C (dose: 150.0 mg/kg/injection, schedule: Q01DX015 (ip), vehicle: carboxymethylcellulose (CMC)) was 118 % of control. The T/C (dose: 150.0 mg/kg/injection, schedule: Q01DX Z (ip), vehicle: saline) was 166 % of control, the T/C (dose: 200.0 mg/kg/injection, schedule: Q01DX001 (ip), vehicle: carboxymethylcellulose (CMC)) was 106 % of control and the T/C [4] was 100 % of control. For the same compound, the T/C (dose: 300.0 mg/kg/injection, schedule: Q01DX015 (ip), vehicle: carboxymethylcellulose (CMC)) was 118 % of control, the T/C (dose: 300.0 mg/kg/injection, schedule: Q01DX Z (ip), vehicle: carboxymethylcellulose (CMC)) was 107 % of control and the T/C (dose: 400.0 mg/kg/injection, schedule: Q01DX001 (ip), vehicle: carboxymethylcellulose (CMC)) was 98 % of control. For the same compound, the T/C (dose: 750.0 mg/kg/injection, schedule: Q01DX001 (ip), vehicle: carboxymethylcellulose (CMC)) was 110 % of control and the T/C (dose: 1500.0 mg/kg/injection, schedule: Q01DX001 (ip), vehicle: carboxymethylcellulose (CMC)) was 114 % of control.

In the case of `NNC(=O)c1ccc(Cl)c(Cl)c1`, the T/C (dose: 100.0 mg/kg/injection, schedule: Q01DX001 (ip), vehicle: Klucel (hydroxypropylcellulose) (HPC)) is reported as 104 % of control, the T/C (dose: 200.0 mg/kg/injection, schedule: Q01DX001 (ip), vehicle: Klucel (hydroxypropylcellulose) (HPC)) is reported as 117 % of control and the T/C (dose: 400.0 mg/kg/injection, schedule: Q01DX001 (ip), vehicle: Klucel (hydroxypropylcellulose) (HPC)) is reported as 112 % of control.

In the case of `COC(=O)C1C2C=CC(C2)C1C(=O)O` (configuration not stated), the T/C [5] is reported as 103 % of control, the T/C (dose: 100.0 mg/kg/injection, schedule: Q01DX009 (ip), vehicle: saline with Tween-80) is reported as 92 % of control and the T/C [1] is reported as 98 % of control. For the same compound, the T/C [6] was 92 % of control, the T/C (dose: 200.0 mg/kg/injection, schedule: Q01DX009 (ip), vehicle: saline with Tween-80) was 86 % of control and the T/C [2] was 97 % of control. The T/C [7] was 88 % of control, the T/C (dose: 400.0 mg/kg/injection, schedule: Q01DX009 (ip), vehicle: saline with Tween-80) was 87 % of control and the T/C [3] was 97 % of control.

`CCCP(=S)(CCC)CCC` was tested, and the T/C (dose: 100.0 mg/kg/injection, schedule: Q01DX001 (ip), vehicle: saline with Tween-80) was 103 % of control and the T/C (dose: 200.0 mg/kg/injection, schedule: Q01DX001 (ip), vehicle: saline with Tween-80) was 94 % of control.

For `N#CSCc1ccc(CSC#N)c(Br)c1`, the T/C (dose: 75.0 mg/kg/injection, schedule: Q01DX009 (ip), vehicle: saline) was 88 % of control.

For `CN1CC2=C(C1)C(N(C(=O)c1ccc(-c3ccccc3)cc1)C(=O)c1ccc(-c3ccccc3)cc1)=NCN2`, the T/C [5] was 97 % of control, the T/C [6] was 94 % of control and the T/C [7] was 94 % of control.

`O=C(/C(=C\c1ccccc1)CBr)c1ccc(Cl)cc1` was tested, and the T/C [8] was 119 % of control.

In the case of `CC(C)(CCl)c1ccccc1`, the T/C (dose: 100.0 mg/kg/injection, schedule: Q04DX002 (ip), vehicle: saline with Tween-80) is reported as 107 % of control, the T/C (dose: 200.0 mg/kg/injection, schedule: Q04DX002 (ip), vehicle: saline with Tween-80) is reported as 88 % of control and the T/C (dose: 400.0 mg/kg/injection, schedule: Q04DX002 (ip), vehicle: saline with Tween-80) is reported as 88 % of control.

In the case of `CC[N+](C)(C)CCCNC(=O)C12CC3CC(CC(C3)C1)C2`, the T/C (dose: 25.0 mg/kg/injection, schedule: Q04DX002 (ip), vehicle: saline) is reported as 99 % of control and the T/C (dose: 50.0 mg/kg/injection, schedule: Q04DX002 (ip), vehicle: saline) is reported as 96 % of control.

For `Nc1ccc(C(=O)Nc2ccc(Nc3ccncc3)cc2)c([N+](=O)[O-])c1`, the T/C (dose: 100.0 mg/kg/injection, schedule: Q01DX009 (ip), vehicle: saline) was 97 % of control, the T/C (dose: 100.0 mg/kg/injection, schedule: Q04DX003 (ip), vehicle: saline) was 100 % of control and the T/C (dose: 200.0 mg/kg/injection, schedule: Q01DX009 (ip), vehicle: saline) was 104 % of control. The T/C (dose: 200.0 mg/kg/injection, schedule: Q04DX003 (ip), vehicle: saline) was 96 % of control, the T/C (dose: 400.0 mg/kg/injection, schedule: Q01DX009 (ip), vehicle: saline) was 106 % of control and the T/C (dose: 400.0 mg/kg/injection, schedule: Q04DX003 (ip), vehicle: saline) was 100 % of control.

In the case of `O=C(NOCCCl)Nc1ccccc1`, the T/C (dose: 125.0 mg/kg/injection, schedule: Q01DX Z (ip), vehicle: carboxymethylcellulose (CMC)) is reported as 96 % of control, the T/C [4] is reported as 96 % of control and the T/C (dose: 250.0 mg/kg/injection, schedule: Q01DX Z (ip), vehicle: carboxymethylcellulose (CMC)) is reported as 107 % of control. The T/C (dose: 500.0 mg/kg/injection, schedule: Q01DX Z (ip), vehicle: carboxymethylcellulose (CMC)) was 95 % of control.

In the case of `Clc1ccc2c(c1)Nc1ccccc1S2`, the T/C [5] is reported as 88 % of control, the T/C [1] is reported as 94 % of control and the T/C [6] is reported as 95 % of control. For the same compound, the T/C [2] was 98 % of control, the T/C [7] was 96 % of control and the T/C [3] was 100 % of control.

For `CC(=O)Nc1ccc2oc(=O)ccc2c1`, the T/C [8] was 98 % of control, the T/C (dose: 200.0 mg/kg/injection, schedule: Q04DX003 (ip), vehicle: saline with Tween-80) was 105 % of control and the T/C (dose: 400.0 mg/kg/injection, schedule: Q04DX003 (ip), vehicle: saline with Tween-80) was 98 % of control.
